For test [1], the target named is T1, human-derived CaMK2γ protein (Homo sapiens, UniProt Q13555).
T1 construct: a pET28A vector is firstly used to express and purify the human-derived full-length CaMK2γ protein; made in house; host or cells: pET28A vector
In words: SPR (Biacore, CM5 chip amine-coupling) affinity to human-derived CaMK2γ protein. Particulars: human-derived full-length CaMK2γ protein, read-out: binding constant. On the procedure: In the embodiment of the disclosure, the affinity between T2533 and human-derived CaMK2γ protein are detected. Specifically, a pET28A vector is firstly used to express and purify the human-derived full-length CaMK2γ protein. Subsequently, the affinity is determined by the surface plasmon resonance (SPR) method of Biacore™ using a CM5 chip amine-coupling.
Background: In SPR one partner is held on a chip, and binding of the other changes the refractive index at the surface.

Test [2] has as its target T2, mouse-derived CaMK2γ protein (Mus musculus, UniProt Q923T9).
T2 construct: a pET28A vector is firstly used to express and purify the mouse-derived full-length CaMK2γ protein; made in house; host or cells: pET28A vector
In words: SPR (Biacore, CM5 chip amine-coupling) affinity to mouse-derived CaMK2γ protein. To be noted: mouse-derived full-length CaMK2γ protein, read-out: binding constant. Here is the method:
In the embodiment of the disclosure, the affinity between T2533 and mouse-derived CaMK2γ protein are detected. Specifically, a pET28A vector is firstly used to express and purify the mouse-derived full-length CaMK2γ protein. Subsequently, the affinity is determined by the SPR method of Biacore™ using a CM5 chip amine-coupling.

Another test concerns the target T3, CaMK2γ (Homo sapiens, UniProt Q13555).
T3 construct: purchased Promega #V9201
In words: ADP-Glo Kinase Assay + CaMK2γ Kinase Enzyme System (Promega #V9201). Particulars: inhibitor final concentration 10 μM, compared with positive control, p<0.0001. Format: biochemical. On the procedure: The kinase activity (%) of 130 compounds screened above are detected by ADP-Glo™ Kinase Assay+CaMK2γ Kinase Enzyme System (Promega #V9201), and the evaluation standard is kinase activity (%).
The kinase activity (%) of each well is calculated by the above method.
In the embodiment of the disclosure, the inhibition of T2533 on CaMK2γ protein activity is detected by ADP-Glo™ Kinase Assay+CaMK2 γ Kinase Enzyme System (Promega #V9201), and the specific experimental steps and settings are as follows.
(1) well setting: 2 blank wells, 2 normal reaction wells, 2 dimethyl sulfoxide (DMSO) control wells, 40 inhibitor wells with 2 plex wells for each inhibitor and 20 inhibitors. There are 46 wells in total.
(2) preparation of a kinase reaction reagent: • (a) preparation of 200 […] 4× Kinase Buffer is as shown in Table 5 below. 175 μL of the 4× Kinase Buffer is required for a single experiment, that is, 2.5*20+62.5+62.5=175 μL. The rest is prepared into 1× Kinase Buffer and used as blank well.
• (b) preparation of 10 μL 5× inhibitor solution (final concentration is 10 micromoles per liter abbreviated μM), and 2.5 μL/well. Specifically, the inhibitor is 10 millimoles per liter abbreviated mM, diluted to 1 mM with DMSO in a ratio of 1:9; the preparation method of DMSO is the same as that of inhibitor, which is used as the DMSO control well, as shown in Table 6 below. […]
(ADP-Glo turns the ADP formed in a reaction into a luminescent signal.)

The subject of another test is IMQ-induced mice. As to the kind of experiment: IMQ-induced psoriatic mouse model: PASI score, erythema, scaling, skin thickness, skin phenotype. The class given is in vivo. Particulars: smeared on skin, Day−2 to Day3. Here is the method: (§1) DMSO is used to dissolve T2533 powder, the T2533 powder is weighed according to different dosage, and then diluted with β-cyclodextrin, the final concentration of DMSO is not more than 5%. The dose gradient of T2533 is 0 mg/kg, 2.5 mg/kg, 5 mg/kg, and 10 mg/kg. Each mouse is calculated as 20 grams (g), and each mouse needs to be administered 0 mg, 0.05 mg, 0.1 mg, and 0.2 mg per day.
(§2) Seven-week-old C57/BL6 mice are bred and modeled in SPF-level environment. The experimental groups are as follows: (1) applying the skin with imiquimod (IMQ) and 0 mg/kg T2533; (2) applying the skin with IMQ and 2.5 mg/kg T2533; (3) applying the skin with IMQ and 5 mg/kg T2533; (4) applying the skin with IMQ and 10 mg/kg T2533; (5) applying the skin with Vaseline® and 0 mg/kg T2533; (6) applying the skin with Vaseline® and 2.5 mg/kg T2533; (7) applying the skin with Vaseline® and 5 mg/kg T2533; and (8) applying the skin with Vaseline® and 10 mg/kg T2533.
(§3) In each group of 6 mice, the hair on the back of the mice is shaved to make the exposed skin reach 4 square centimeters. The start date of the experiment is set as Day−2, and the end date is set as Day4. From Day−2 to Day3, 200 μL of liquid drug is taken in the morning and evening every day and evenly smeared on the skin of mice until it is absorbed. From Day 0 to Day 3, 62.5 mg IMQ is applied to each mouse at noon of every day. The skin of mice is scored every day, the mice are euthanized on Day 4, and the skin tissues are taken for a series of detection.
The PASI score results and the corresponding score results of erythema, scaling, and skin thickness of the above IMQ modelled mice are shown in FIG. 9, FIG. 10, FIG. 11, and FIG. 12, respectively. The skin phenotypes and skin pathological phenotypes are shown in FIG. 13 and FIG. 14, respectively.

For test [3], the system named is IL17A^+ cells in dermal γδT subsets. In words: Flow cytometry of skin lymphocytes of IMQ-induced mice. Format: in vivo, mouse. To be noted: 5 mg/kg; compared with IMQ-induced mice without T2533. Here is the method: as §1
Seven-week-old C57/BL6 mice are bred and modeled in SPF-level environment. […]
In each group of 6 mice, the hair on the back of the mice is shaved to make the exposed skin reach 4 square centimeters. […] The skin of mice is scored every day, the mice are euthanized on Day 4, and the skin tissues are taken for a series of detection.
(§4) The skin lymphocytes of mice in the above groups are isolated and detected by flow cytometry (i.e., the detection of the proportion of IL17A^+ cells in dermal γδT subsets, the IL17A^+ cells are main effector cells mediated by the CaMK2γ pathway of psoriasis and can secrete a large number of IL-17 cytokines to aggravate psoriasis). […] Quantitative PCR is performed on known proinflammatory genes closely related to psoriasis, including Il17a, Il17f, Il22, Tnfa and Il23a.
For orientation: Flow cytometry measures light scatter and fluorescence of single cells or particles in a stream.

Test [4] concerns Il17a, Il17f, Il22, Tnfa and Il23a. In words: Quantitative PCR of proinflammatory genes in skin of IMQ-induced mice. Format: in vivo, mouse. Particulars: qPCR. On the procedure: as §1, §2, §3, §4

T3 sequence (Q13555 whole entry): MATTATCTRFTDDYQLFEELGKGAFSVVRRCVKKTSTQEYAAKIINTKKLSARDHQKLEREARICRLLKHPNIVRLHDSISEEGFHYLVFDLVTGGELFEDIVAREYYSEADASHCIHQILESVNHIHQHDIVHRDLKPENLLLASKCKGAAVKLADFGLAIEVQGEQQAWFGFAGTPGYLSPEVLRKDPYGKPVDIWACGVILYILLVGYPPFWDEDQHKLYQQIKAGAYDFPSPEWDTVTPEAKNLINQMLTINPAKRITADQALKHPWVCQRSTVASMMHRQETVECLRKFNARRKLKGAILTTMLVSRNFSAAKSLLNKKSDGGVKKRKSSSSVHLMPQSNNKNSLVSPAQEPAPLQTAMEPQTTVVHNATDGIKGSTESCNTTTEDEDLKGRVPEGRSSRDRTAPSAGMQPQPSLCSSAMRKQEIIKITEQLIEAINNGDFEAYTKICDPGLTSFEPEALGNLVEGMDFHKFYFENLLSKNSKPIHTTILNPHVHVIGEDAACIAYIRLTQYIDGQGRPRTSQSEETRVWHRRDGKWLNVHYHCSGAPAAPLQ
T1 sequence (Q13555 whole entry): as above
T2 sequence (Q923T9 whole entry): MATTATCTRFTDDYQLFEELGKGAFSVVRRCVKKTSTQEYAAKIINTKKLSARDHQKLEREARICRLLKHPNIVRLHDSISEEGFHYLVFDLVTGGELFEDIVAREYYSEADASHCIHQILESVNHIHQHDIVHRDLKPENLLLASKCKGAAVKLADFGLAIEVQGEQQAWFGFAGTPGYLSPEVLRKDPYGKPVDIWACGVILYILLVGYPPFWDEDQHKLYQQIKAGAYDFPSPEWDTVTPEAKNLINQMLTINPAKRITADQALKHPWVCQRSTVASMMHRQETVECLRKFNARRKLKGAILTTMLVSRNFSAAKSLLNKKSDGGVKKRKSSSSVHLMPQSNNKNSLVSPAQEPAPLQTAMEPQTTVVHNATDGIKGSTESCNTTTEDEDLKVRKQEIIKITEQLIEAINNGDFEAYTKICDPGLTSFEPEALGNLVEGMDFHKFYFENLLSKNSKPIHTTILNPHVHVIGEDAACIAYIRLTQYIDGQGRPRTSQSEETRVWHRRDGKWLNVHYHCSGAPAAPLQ

Take `CN1CCC(=C2c3ccccc3CCn3c(C=O)cnc32)CC1` [T2533, Alcaftadine]: the results for the Kd in test [1] and in test [2] were 25.4 µM and 68.4 µM, respectively. Further, the entries for the “inhibition effect on kinase activity (%)” value at CaMK2γ and on CaMK2γ (listed as compound I) were “effectively reduce the expression of CaMK2γ protein” and “most significant inhibition effect”, respectively. Also, the results for the “inflammatory phenotype of IMQ-induced mice” value in the test with IMQ-induced mice (2.5 mg/kg), with IMQ-induced mice (5 mg/kg) and in the test with IMQ-induced mice (10 mg/kg) were “reduces the inflammatory phenotype”, “most significant” and “reduces the inflammatory phenotype”, respectively. For the same molecule, the “proportion of IL-17A^+ cells in dermal γδT subsets” value in test [3] is given as “significantly reduced”. For the same molecule, the “expression of Il17a in the skin” value in test [4] (2.5 mg/kg) and in test [4] (5 mg/kg) was “decrease significantly” throughout. The “expression of Il17f in the skin” value in test [4] (2.5 mg/kg) and in test [4] (5 mg/kg) was “decrease significantly” throughout. Besides, the “expression of Il22 in the skin” value in test [4] (2.5 mg/kg) and in test [4] (5 mg/kg) was “unchanged” in each case. Moreover, the “expression of Il23a in the skin” value in test [4] (2.5 mg/kg) was “unchanged”; in test [4] (5 mg/kg) it was “decrease significantly”. For the same molecule, the “expression of Tnfa in the skin” value in test [4] (2.5 mg/kg) was “unchanged”; in test [4] (5 mg/kg) it was “decrease significantly”.

Source of the values: patent US11992493B1, “Use of compound or pharmaceutical derivative thereof in inhibiting CaMK2G protein activity” (priority 2022, dated 2024).
